Consider 33 molecules from the METLIN SMRT retention time set (Domingo-Almenara et al. 2019).

A short description of the data set: gradient 5% acetonitrile 3 min, to 50% in 2 min, to 85% in 15 min, held 3 min, 100 µL/min. Particulars: column: Zorbax Extend-C18 2.1 x 50 mm; eluents: water / acetonitrile, 0.1% formic acid. In short, it runs like this:
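Values are retention times taken from adduct peaks that software picked and an analyst inspected. The pure standards were run as mixtures of ~100 molecules on HPLC linked to a quadrupole time-of-flight mass spectrometer, in positive and negative ionization mode. A Zorbax Extend-C18 column (2.1 × 50 mm, 1.8 μm) was used at 100 μL/min with water and acetonitrile, each including 0.1% formic acid.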
With `Cc1ccc(Cl)cc1N1CCN(C(=O)CCc2nnc3c4cc(-c5ccccc5)nn4ccn23)CC1`, the RP-LC retention time came to 999 s. For the molecule `CC(O)(CNC(=O)C(=O)NCCC1=CCCCC1)c1cccs1` (stereo not drawn), the RP-LC retention time is 1120 s. In the case of `CC(C)NC(=O)N1C[C@@H]2CCCN3CCC[C@@H]([C@H]23)[C@H]1CCCC(=O)NCC1CC1`, the RP-LC retention time was found to be 578 s. Regarding `CCn1cc(-c2ccc(Cl)cc2)cc1C(=O)NC(C)c1cccnc1` (stereo not drawn), the RP-LC retention time is 758 s. As to `Cc1ccnc(NC(=O)C2CCCN(S(=O)(=O)c3cc(-c4noc(C5CCC5)n4)cs3)C2)c1` (stereo not drawn), the RP-LC retention time came out at 891 s. `O=C(CCC1CCCC1)N1CCN(c2nnc3ccc(Cl)cn23)CC1` yielded an RP-LC retention time of 832 s. `Cc1ccc2c(c1)OCC(=O)N2Cc1nc(-c2cccc(F)c2)no1` came in with an RP-LC retention time of 1070 s. Molecule `COc1ccc(N2CC(c3noc(-c4ccc(Cl)cc4)n3)CC2=O)cc1OC` (stereo not drawn) had an RP-LC retention time of 956 s.

The molecule `CN1CCN(C(=O)C2CCN(c3nc4ccc(-c5ccsc5)nc4s3)CC2)CC1` yielded an RP-LC retention time of 651 s. Regarding `COc1ccc(-c2csc(C)n2)cc1S(=O)(=O)N1CCc2ccccc2C1`, the RP-LC retention time was 970 s. Molecule `COc1cc(NC(=O)N2CCC(N3CCN(Cc4ccccc4)C3=O)CC2)cc(OC)c1` came in with an RP-LC retention time of 804 s. Take `O=C(O)c1ccc(OCCOc2ccccc2)cc1`: the RP-LC retention time turned out to be 916 s. The molecule `COc1ccc(-c2nc(-c3cn(-c4cccc(Cl)c4)nn3)no2)c(OC)c1` showed an RP-LC retention time of 1070 s. To `Cc1ccc(CNC(=O)C2(C)Cn3nc(C(=O)NCCC(C)C)cc3C(=O)N2C)cc1` (stereo not drawn) belongs 754 s; to `COc1ccccc1C1CC(=O)Nc2c(S(=O)(=O)c3ccccc3)csc21` (stereo not drawn), 946 s; to `Cc1cc(C)n(Cc2nc(-c3ccc(NC(=O)COc4ccccc4)cc3)oc2C)n1`, 974 s. For the molecule `Cc1nc(-c2cn(C)c3ncccc23)sc1C(=O)Nc1ccc(Cl)cc1`, the RP-LC retention time amounted to 1060 s.

For `CCOC(=O)c1c(C)c(S(=O)(=O)N2CCN(c3ccccn3)CC2)c(C)n1C`, the RP-LC retention time turned out to be 690 s. In turn, `O=C(c1csc(N2CCN(c3ccc(F)cc3)CC2)n1)N1CCOCC1` showed an RP-LC retention time of 954 s. Molecule `O=C(NCc1ccc2c(c1)OCO2)C1COC2(CCN(C(=O)C3CC3)CC2)N1C(=O)c1ccccc1` (stereo not drawn) registered an RP-LC retention time of 692 s. The molecule `COC(=O)c1cnc(N2CCN(c3cccc(C)c3)C(C)C2)c2ccccc12` (stereo not drawn) displayed an RP-LC retention time of 1040 s. `O=C(CN1CCN(Cc2ccccc2F)C1=O)NCCc1cccs1` yielded an RP-LC retention time of 778 s. Take `Cc1ccc(C)c(Cn2ccn3nc(-c4ccccc4)c(CO)c3c2=O)c1`: the RP-LC retention time amounted to 1030 s.

`Cc1sc(-c2cc(C(F)(F)F)on2)cc1S(=O)(=O)N1CCOCC1` yielded an RP-LC retention time of 1040 s.

Regarding `O=C(Nc1ccc2c(c1)OCCO2)C(=O)c1cn(CC(=O)N2CCOCC2)c2ccccc12`, the RP-LC retention time amounted to 850 s. Regarding `Cc1ccc(NC(=O)CN2C(=O)CCc3cc(Br)ccc32)cc1`, the RP-LC retention time was 931 s. Then `O=C(c1cccnc1)C1Cc2ccccc2C1=O` (stereo not drawn), with 884 s; and `O=C(NN1CCCCC1)NN1CCCCC1`, with 626 s. In turn, `CCC(C)NC(=O)C1CCN(c2cnc(N3CCN(CC)CC3)nc2)CC1` (stereo not drawn) had an RP-LC retention time of 575 s.

Molecule `COc1ccc(CNC(=O)c2ccc(CN3CCN(C(C)C)C(=O)C3=O)cc2)cc1` yielded an RP-LC retention time of 693 s. `CCOC(=O)c1cc(S(=O)(=O)N2CCCC2C(=O)NCc2cccs2)cn1C` (stereo not drawn) gave an RP-LC retention time of 823 s. Consider `Cc1cc(C(=O)Nc2nnc(-c3cccs3)o2)c(C)o1`, for which the RP-LC retention time came out at 706 s. To `Cc1ccc(CNC(=O)C2(C)CCCN(C(=O)Nc3ccccc3Cl)C2)cc1` (stereo not drawn) belongs 995 s.
